Measured values: patent US20120029045A1, “METHOD FOR TREATING PORT WINE STAINS” (SHANGHAI FUDAN-ZHANGJIANG BIO-PHARMACEUTICAL CO., LTD., priority 2010, published 2012)

Key:
[1] = Dynamic change of the concentration of HpD and HMME in chicken blood; assay type: in vivo; conditions: 10 mg/kg neck vein
Experimental: HpD and HMME in chicken blood were monitored at various times after injection. HpD or HMME was injected in chicken neck veins at a dose of 10 mg/kg, taking a blood sample every 10 minutes following injection. […] The two curves shown in FIG. 2 have generally the same pattern.

[2] = PDT for PWS, adverse effects and crust levels; assay type: in vivo, human
Experimental: A solution of 1 ml saline was injected in the superficial vein (e.g. median cubital vein) of patients to ensure no liquid leaked into tissues adjacent to the blood vessels into which the injection was made. At the same site, HMME was injected intravenously for 20 minutes with a constant flow rate by using an infusion pump. The doses applied were 2.5 mg/kg body weight or 5.0 mg/kg body weight. Next, 2-4 ml of saline solution was again injected to prevent the drugs from aggregating locally. Irradiation with KTP532 laser was then applied to the patient's lesion site 0-10 minutes after the start of injection, for a total duration of irradiation of either 20 minutes (denoted as the 20 min group), or 30 minutes (denoted as the 30 minute group). […] When irradiation was started immediately after the start of injection, the overlap between the injection and irradiation was about 20 minutes, when irradiation started 5 minutes after the start of injection, the overlap between drug injection and light irradiation was approximately 15 minutes, and when irradiation was started 10 minutes after the start of injection, the overlap was about 10 minutes. The therapeutic results were measured 8 weeks after the treatment. The most common adverse temporary effects included swelling, burning, redness, pain, blister and crust formation in PDT for PWS and these symptoms occurred in almost every case. Scar or crust thickness was measured as thickening of crusts. The crust levels served as an assessment index for scars.

[3] = Part A, 5.0 mg/kg, patients treated for 20 min
[4] = Part B, 2.5 mg/kg group, irradiated 20 min
[5] = Part B, 5.0 mg/kg group, irradiated 20 min
[6] = Part B, 2.5 and 5.0 mg/kg, irradiated 20 min

Work on hematoporphyrin monomethyl ether [HMME] yielded a Photosensitizer concentration in chicken blood ([1]; post-injection time 10 min) of 6.83 µg/mL, a Photosensitizer concentration in chicken blood ([1]; post-injection time 20 min) of 5.92 µg/mL and a Photosensitizer concentration in chicken blood ([1]; post-injection time 30 min) of 5.33 µg/mL. It also gave a Photosensitizer concentration in chicken blood ([1]; post-injection time 40 min) of 4.83 µg/mL, a Photosensitizer concentration in chicken blood ([1]; post-injection time 50 min) of 4.49 µg/mL and a Photosensitizer concentration in chicken blood ([1]; post-injection time 60 min) of 4.17 µg/mL. The Photosensitizer concentration in chicken blood ([1]; post-injection time 70 min) was 3.83 µg/mL, the Photosensitizer concentration in chicken blood ([1]; post-injection time 80 min) was 3.58 µg/mL and the Photosensitizer concentration in chicken blood ([1]; post-injection time 90 min) was 3.51 µg/mL. It also gave a Photosensitizer concentration in chicken blood ([1]; post-injection time 100 min) of 2.67 µg/mL, a Photosensitizer concentration in chicken blood ([1]; post-injection time 110 min) of 2.42 µg/mL and a Photosensitizer concentration in chicken blood ([1]; post-injection time 120 min) of 1.99 µg/mL. The “time after injection at which serum concentration reaches a peak” value ([1]; chicken) was 10 min, the “Blister, Mild (cases)” value ([2]; 5.0 mg/kg, 20 min group) was 0 and the “Blister, Moderate (cases)” value ([2]; 5.0 mg/kg, 20 min group) was 0. For the same substance, the “Blister, Rate (%)” value ([2]; 5.0 mg/kg, 20 min group) was 0.0%, the “Blister, total (cases)” value ([2]; 5.0 mg/kg, 20 min group) was 10 and the “Burning, Mild (cases)” value ([2]; 5.0 mg/kg, 20 min group) was 0. The “Burning, Moderate (cases)” value ([2]; 5.0 mg/kg, 20 min group) was 0, the “Burning, Rate (%)” value ([2]; 5.0 mg/kg, 20 min group) was 0.0% and the “Burning, total (cases)” value ([2]; 5.0 mg/kg, 20 min group) was 0. For the same substance, the “Pain, Mild (cases)” value ([2]; 5.0 mg/kg, 20 min group) was 1, the “Pain, Moderate (cases)” value ([2]; 5.0 mg/kg, 20 min group) was 9 and the “Pain, Rate (%)” value ([2]; 5.0 mg/kg, 20 min group) was 50.0%. The “Pain, total (cases)” value ([2]; 5.0 mg/kg, 20 min group) was 10, the “Redness, Mild (cases)” value ([2]; 5.0 mg/kg, 20 min group) was 0 and the “Redness, Moderate (cases)” value ([2]; 5.0 mg/kg, 20 min group) was 0. For the same substance, the “Redness, Rate (%)” value ([2]; 5.0 mg/kg, 20 min group) was 0.0%, the “Redness, total (cases)” value ([2]; 5.0 mg/kg, 20 min group) was 0 and the “Swelling, Mild (cases)” value ([2]; 5.0 mg/kg, 20 min group) was 9. For the same substance, the “Swelling, Moderate (cases)” value ([2]; 5.0 mg/kg, 20 min group) was 9, the “Swelling, Rate (%)” value ([2]; 5.0 mg/kg, 20 min group) was 90.0% and the “Swelling, total (cases)” value ([2]; 5.0 mg/kg, 20 min group) was 18. For the same substance, the “crust level Moderate thick and fractional, (%)” value ([2]; 5.0 mg/kg, 20 min group) was “(5.0) %”, the “crust level Moderate thick and full, (%)” value ([2]; 5.0 mg/kg, 20 min group) was “(0.0) %” and the “crust level None, (%)” value ([2]; 5.0 mg/kg, 20 min group) was “(25.0) %”. For the same substance, the “crust level Thin and fractional, (%)” value ([2]; 5.0 mg/kg, 20 min group) was “(50.0) %”, the “crust level Thin and full, (%)” value ([2]; 5.0 mg/kg, 20 min group) was “(20.0) %” and the “Blister, Mild (cases)” value ([2]; 5.0 mg/kg, 30 min group) was 2. For the same substance, the “Blister, Moderate (cases)” value ([2]; 5.0 mg/kg, 30 min group) was 0, the “Blister, Rate (%)” value ([2]; 5.0 mg/kg, 30 min group) was 10.0% and the “Blister, total (cases)” value ([2]; 5.0 mg/kg, 30 min group) was 2. For the same substance, the “Burning, Mild (cases)” value ([2]; 5.0 mg/kg, 30 min group) was 0, the “Burning, Moderate (cases)” value ([2]; 5.0 mg/kg, 30 min group) was 1 and the “Burning, Rate (%)” value ([2]; 5.0 mg/kg, 30 min group) was 5.0%. The “Burning, total (cases)” value ([2]; 5.0 mg/kg, 30 min group) was 1, the “Pain, Mild (cases)” value ([2]; 5.0 mg/kg, 30 min group) was 3 and the “Pain, Moderate (cases)” value ([2]; 5.0 mg/kg, 30 min group) was 12. For the same substance, the “Pain, Rate (%)” value ([2]; 5.0 mg/kg, 30 min group) was 75.0%, the “Pain, total (cases)” value ([2]; 5.0 mg/kg, 30 min group) was 15 and the “Redness, Mild (cases)” value ([2]; 5.0 mg/kg, 30 min group) was 0. The “Redness, Moderate (cases)” value ([2]; 5.0 mg/kg, 30 min group) was 2, the “Redness, Rate (%)” value ([2]; 5.0 mg/kg, 30 min group) was 10.0% and the “Redness, total (cases)” value ([2]; 5.0 mg/kg, 30 min group) was 2. For the same substance, the “Swelling, Mild (cases)” value ([2]; 5.0 mg/kg, 30 min group) was 6, the “Swelling, Moderate (cases)” value ([2]; 5.0 mg/kg, 30 min group) was 12 and the “Swelling, Rate (%)” value ([2]; 5.0 mg/kg, 30 min group) was 90.0%. For the same substance, the “Swelling, total (cases)” value ([2]; 5.0 mg/kg, 30 min group) was 18, the “crust level Moderate thick and fractional, (%)” value ([2]; 5.0 mg/kg, 30 min group) was “(5.0) %” and the “crust level Moderate thick and full, (%)” value ([2]; 5.0 mg/kg, 30 min group) was “(15.0) %”. The “crust level None, (%)” value ([2]; 5.0 mg/kg, 30 min group) was “(15.0) %”, the “crust level Thin and fractional, (%)” value ([2]; 5.0 mg/kg, 30 min group) was “(25.0) %” and the “crust level Thin and full, (%)” value ([2]; 5.0 mg/kg, 30 min group) was “(40.0) %”. The “severity of adverse effects” value ([2]; Part A, 5.0 mg/kg, irradiation 20 or 30 min) was “mild or moderate”, the scars [2, 3] was “no scars were present” and the serious-thick crusts [2, 3] was “No serious-thick crusts occurred”. For the same substance, the “Crust Total, Rate (%)” value [2, 4] was 34.7%, the “Crust level Mild, Rate (%)” value [2, 4] was 34.7% and the “Crust level Moderate, Rate (%)” value [2, 4] was 0.0%. For the same substance, the “Crust level Serious, Rate (%)” value [2, 4] was 0.0%, the “Crust Total, Rate (%)” value [2, 5] was 88.01% and the “Crust level Mild, Rate (%)” value [2, 5] was 60.0%. For the same substance, the “Crust level Moderate, Rate (%)” value [2, 5] was 28.0%, the “Crust level Serious, Rate (%)” value [2, 5] was 0.0% and the scars [2, 6] was “no scars were formed”. For the same substance, the serious-thick crusts [2, 6] was “No serious-thick crusts occurred”.
